# Measured values published in patent US20190225650A1, “PEPTIDOMIMETIC MACROCYCLES AND USE THEREOF IN REGULATING HIF1ALPHA” (AILERON THERAPEUTICS, INC., priority 2013, published 2019).
# Bridge positions count the residues as written; N and C are the ends. Square brackets hold non-standard residues; d marks the D form. Peptide text beside a SMILES is read from it. R8 = C=CCCCCCC[C@@](C)(N)C(=O)O; S5 = C=CCCC[C@](C)(N)C(=O)O; Nle = CCCC[C@H](N)C(=O)O; Abu = CC[C@H](N)C(=O)O
# Assays:
# [1] = molecular target: T1, flag-tagged HIF1α (AA 786-826) / His6-tagged p300 (AA 323-423) complex (Homo sapiens, UniProt Q09472); experiment: HIF1α p300 displacement assay (TR FRET, +CHAPS); type: binding; conditions: read-out: IC50 (nM) (HIF1α_p300 Displacement + CHAPS)
# T1 construct: His6-tagged p300 (AA 323-423); made in house; host or cells: E. coli (pETDuet vector)
# How it was run: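 In this TR-FRET displacement format, peptides compete HIF1α C-terminal transactivation domain off p300-CH. They were preincubated 1 h at room temperature with 300 nM complex in HEPES pH 7.4/NaCl buffer with 7.5 mM CHAPS and 1 mM DTT. Anti-His-D2 (4 nM) and anti-Flag-K (0.5 μM) followed for 2 h, and a one-site fit of the fluorescence ratio gave IC50.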
# HRE-bla ME-180 cells [2] = experiment: Reporter gene assay (HRE-bla ME-180 HIF reporter, GeneBLAzer); type: cell-based, human; conditions: for EC50: 24 hour normoxia
# How it was run: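 A FRET β-lactamase readout of HIF transcription was used. After compound treatment in 0.3% DMSO/media under normoxic conditions, 20 μl of 6× LiveBLAzer-FRET B/G (CCF4-AM) substrate was added. Plates sat 3 hr at room temperature in the dark and were read at 409 Ex/460Em and 409Ex/530Em on a Synergy 2. Inhibition was compared against DMSO vehicle controls, with chetomin as positive control.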
# HRE-bla ME-180 cells [3] = experiment: Cell proliferation assay (viability, MTT, 1% FBS); type: cell-based, human
# How it was run: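 Viable cell number was measured with the CellTiter 96 (MTT) kit after compounds were applied for a 16 h normoxic (21% O2) pretreatment, followed by further normoxic or hypoxic (1% O2) culture. Cells: 2×10^4 ME-180 per well, Opti-MEM + 1% FBS, 0.5% DMSO vehicle.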
SMILES,IC50 [1],18 h Avg % max inhibition at top conc (HIF Rptr-24 hrs normoxia) (μM) (HRE-bla ME-180 cells [2]),EC50 (HRE-bla ME-180 cells [2]),Viability 1% FBS AVG (MTT V3-24 hr Normoxia) (μM) (HRE-bla ME-180 cells [3])
CC[C@H](C)[C@H](NC(=O)[C@H](Cc1ccccc1)NC(C)=O)C(=O)N[C@@H](CC(=O)O)C(=O)N[C@@H](CCC(=O)O)C(=O)N[C@@H](CCC(=O)O)C(=O)N[C@H](C(=O)N[C@@H](CC(C)C)C(=O)N[C@@H](CCSC)C(=O)N[C@@]1(C)CCCC=CCCC[C@@](C)(C(=O)N[C@@H](CCSC)C(=O)N[C@@H](C)C(=O)N[C@@H](CC(C)C)C(N)=O)NC(=O)[C@H]([C@@H](C)CC)NC(=O)[C@H](C(C)C)NC(=O)[C@H](Cc2ccccc2)NC1=O)C(C)C [SP-236] (Ac-FIDEEVLM[S5]FVI[S5]MAL-NH2; staple 9-13),> 700 nM,+++ (≤25 but <50: +++),> 30 µM,++++ (≥30: ++++)
CC[C@H](C)[C@H](NC(=O)[C@H](Cc1ccccc1)NC(C)=O)C(=O)N[C@@H](CC(=O)O)C(=O)N[C@@H](CCC(=O)O)C(=O)N[C@@]1(C)CCCC=CCCC[C@@](C)(C(=O)N[C@@H](CC(C)C)C(=O)N[C@H](C(=O)N[C@H](C(=O)N[C@@H](CCC(=O)O)C(=O)N[C@@H](CCSC)C(=O)N[C@@H](C)C(=O)N[C@@H](CC(C)C)C(N)=O)[C@@H](C)CC)C(C)C)NC(=O)[C@H](CCSC)NC(=O)[C@H](CC(C)C)NC(=O)[C@H](C(C)C)NC1=O [SP-110] (Ac-FIDE[S5]VLM[S5]LVIEMAL-NH2; staple 5-9),400 to 700 nM,+++ (≤25 but <50: +++),> 30 µM,++++ (≥30: ++++)
CCCC[C@H](NC(=O)[C@H](CCC(=O)O)NC(=O)[C@@H](NC(=O)[C@@H](NC(=O)[C@H](CC(C)C)NC(=O)[C@]1(C)CCCC=CCCC[C@](C)(NC(=O)[C@H](CCC(=O)O)NC(=O)[C@H](CC(=O)O)NC(=O)[C@@H](NC(=O)[C@H](Cc2ccccc2)NC(C)=O)[C@@H](C)O)C(=O)N[C@@H](C(C)C)C(=O)N[C@@H](CC(C)C)C(=O)N[C@@H](CCCC)C(=O)N1)C(C)C)[C@@H](C)CC)C(=O)N[C@@H](C)C(=O)N[C@@H](CC(C)C)C(N)=O [SP-153] (Ac-FTDE[S5]VL[Nle][S5]LVIE[Nle]AL-NH2; staple 5-9),400 to 700 nM,+ (<10: +),> 30 µM,++++ (≥30: ++++)
CCCC[C@@H]1NC(=O)[C@H](CC(C)C)NC(=O)[C@H](C(C)C)NC(=O)[C@@](C)(NC(=O)[C@H](CCC(=O)O)NC(=O)[C@H](CC(=O)O)NC(=O)[C@@H](NC(=O)[C@H](Cc2ccccc2)NC(C)=O)[C@@H](C)CC)CCCC=CCCCC2(CCCC=CCCC[C@](C)(C(=O)N[C@@H](CCCNC(=N)N)C(=O)N[C@@H](C)C(=O)N[C@@H](CC(C)C)C(N)=O)NC(=O)[C@H]([C@@H](C)CC)NC(=O)[C@H](C(C)C)NC(=O)[C@H](CC(C)C)NC2=O)NC1=O (stereo partly shown) [SP-213],> 700 nM,+ (<10: +),> 30 µM,++++ (≥30: ++++)
CCCC[C@@H]1NC(=O)[C@H](CC(C)C)NC(=O)[C@H](C(C)C)NC(=O)[C@@](C)(NC(=O)[C@H](CCC(=O)O)NC(=O)[C@H](CC(=O)O)NC(=O)[C@@H](NC(=O)[C@H](Cc2ccccc2)NC(C)=O)[C@@H](C)CC)CCCC=CCCC[C@@](C)(C(=O)N[C@@H](CC(C)C)C(=O)N[C@H](C(=O)N[C@H](C(=O)N[C@@H](CCC(=O)O)C(=O)N[C@@H](CCSC)C(=O)N[C@@H](C)C(=O)N[C@@H](CC(C)C)C(=O)N[C@@H](CC(=O)O)C(=O)N[C@@H](CCCNC(=N)N)C(=O)N[C@H](C(N)=O)[C@@H](C)CC)[C@@H](C)CC)C(C)C)NC1=O [SP-118] (Ac-FIDE[S5]VL[Nle][S5]LVIEMALDRI-NH2; staple 5-9),≤ 200 nM,+++ (≤25 but <50: +++),15 to 30 µM,++++ (≥30: ++++)
"CCCC[C@H](NC(=O)[C@H](CCC(=O)O)NC(=O)[C@]1(C)CCCC=CCCCCCC[C@@](C)(NC(=O)[C@H](C)NC(=O)[C@H](CC(=O)O)NC(=O)[C@@H](NC(=O)[C@H](CC(N)=O)NC(=O)[C@@H](NC(=O)[C@H](CCC(N)=O)NC(=O)[C@]2(C)CCCC=CCCC[C@](C)(NC(=O)[C@H](CC(C)C)NC(=O)[C@H](CCC(=O)O)NC(=O)[C@H](CCC(=O)O)NC(=O)CNC(=O)[C@H](CCC(N)=O)NC(=O)[C@H](CC(C)C)NC(=O)[C@H](CC(C)C)NC(C)=O)C(=O)N[C@@H](CCCNC(=N)N)C(=O)N[C@@H](C)C(=O)N[C@@H](CC(C)C)C(=O)N2)C(C)C)[C@@H](C)CC)C(=O)N[C@@H](C(C)C)C(=O)N[C@@H](CC(C)C)C(=O)N[C@@H](CCCC)C(=O)N[C@@H](CO)C(=O)N[C@@H](CC(C)C)C(=O)N[C@@H](C(C)C)C(=O)N1)C(N)=O [SP-362] (Ac-LLQGEEL[S5]RAL[S5]QVNIDA[R8]VL[Nle]SLV[S5]E[Nle]-NH2; staple 8-12, 19-26)",400 to 700 nM,++++ (≥50: ++++),5 to 15 µM,++++ (≥30: ++++)
"CC[C@@H]1NC(=O)[C@H](CC(=O)O)NC(=O)[C@H](Cc2ccc(O)cc2)NC(=O)[C@@](C)(NC(=O)[C@@H](NC(=O)[C@H](CC(C)C)NC(=O)[C@H](CCC(N)=O)NC(=O)[C@@H]2CCCN2C(=O)[C@H](CC(C)C)NC(=O)[C@H](CCC(=O)O)NC(=O)[C@H](CCCCN)NC(=O)[C@@H](NC(=O)[C@H](CCCNC(=N)N)NC(=O)[C@H](CC(=O)O)NC(=O)[C@H](CC(C)C)NC(=O)CNC(=O)[C@H](CCSC)NC(=O)[C@]2(C)CCCC=CCCC[C@](C)(NC(=O)[C@H](CCSC)NC(=O)[C@H](CC(C)C)NC(=O)[C@@H](NC(=O)[C@H](CCC(=O)O)NC(=O)[C@H](CCC(=O)O)NC(=O)[C@H](CC(=O)O)NC(=O)[C@@H](NC(=O)[C@H](Cc3ccccc3)NC(C)=O)[C@@H](C)CC)C(C)C)C(=O)N[C@@H](CC(C)C)C(=O)N[C@@H](C(C)C)C(=O)N[C@@H]([C@@H](C)CC)C(=O)N2)[C@@H](C)CC)[C@@H](C)O)CCCC=CCCC[C@@](C)(C(=O)N[C@H](C(=O)N[C@@H](CC(N)=O)C(=O)N[C@@H](C)C(N)=O)C(C)C)NC1=O [SP-321] (Ac-FIDEEVLM[S5]LVI[S5]MGLDRIKELPQLT[S5]YD[Abu][S5]VNA-NH2; staple 9-13, 27-31)",200 to 400 nM,+++ (≤25 but <50: +++),15 to 30 µM,++++ (≥30: ++++)
CCCC[C@H](NC(=O)[C@H](C)NC(=O)[C@H](CCSC)NC(=O)[C@]1(C)CCCC=CCCC[C@](C)(NC(=O)[C@H](CCSC)NC(=O)[C@H](CC(C)C)NC(=O)[C@@H](NC(=O)[C@H](CCC(=O)O)NC(=O)[C@H](CCC(=O)O)NC(=O)[C@H](CC(=O)O)NC(=O)[C@@H](NC(=O)[C@H](Cc2ccccc2)NC(C)=O)[C@@H](C)CC)C(C)C)C(=O)N[C@@H](CC(C)C)C(=O)N[C@@H](C(C)C)C(=O)N[C@@H]([C@@H](C)CC)C(=O)N1)C(N)=O [SP-227] (Ac-FIDEEVLM[S5]LVI[S5]MA[Nle]-NH2; staple 9-13),> 700 nM,++ (≤10 but <25: ++),> 30 µM,++++ (≥30: ++++)
CCCC[C@@H]1NC(=O)[C@H](CC(C)C)NC(=O)[C@H](C(C)C)NC(=O)[C@@](C)(NC(=O)[C@H](CCC(=O)O)NC(=O)[C@H](CC(=O)O)NC(=O)[C@@H](NC(=O)[C@H](Cc2ccccc2)NC(C)=O)[C@@H](C)CC)CCCC=CCCC[C@@](C)(C(=O)N[C@@H](CC(C)C)C(=O)N[C@H](C(=O)N[C@H](C(=O)N[C@@H](CCC(=O)O)C(=O)N[C@@H](CO)C(=O)N[C@@H](C)C(=O)N[C@@H](CC(C)C)C(N)=O)[C@@H](C)CC)C(C)C)NC1=O [SP-147] (Ac-FIDE[S5]VL[Nle][S5]LVIESAL-NH2; staple 5-9),> 700 nM,+++ (≤25 but <50: +++),15 to 30 µM,++++ (≥30: ++++)
CCCC[C@H](NC(=O)[C@]1(C)CCCC=CCCC[C@](C)(NC(=O)[C@H](CCCC)NC(=O)[C@H](CC(C)C)NC(=O)[C@@H](NC(=O)[C@H](CCC(=O)O)NC(=O)[C@H](CCC(=O)O)NC(=O)[C@H](CC(=O)O)NC(=O)[C@@H](NC(=O)[C@H](CC(N)=O)NC(=O)[C@@H](NC(=O)[C@H](CCC(N)=O)NC(=O)[C@H](CC(=O)O)NC(=O)[C@H](CC(C)C)NC(=O)[C@H](C)NC(=O)[C@H](CCCNC(=N)N)NC(=O)[C@H](CC(C)C)NC(=O)[C@H](CC(C)C)NC(=O)[C@H](CCC(=O)O)NC(=O)[C@H](CCC(=O)O)NC(=O)CNC(=O)[C@H](CCC(N)=O)NC(=O)[C@H](CC(C)C)NC(=O)[C@H](CC(C)C)NC(C)=O)C(C)C)[C@@H](C)CC)C(C)C)C(=O)N[C@@H](CC(C)C)C(=O)N[C@@H](C(C)C)C(=O)N[C@@H]([C@@H](C)CC)C(=O)N1)C(N)=O [SP-335] (Ac-LLQGEELLRALDQVNIDEEVL[Nle][S5]LVI[S5][Nle]-NH2; staple 23-27),400 to 700 nM,+ (<10: +),> 30 µM,++++ (≥30: ++++)
